biological target: T1, Full-length, GST-tagged, human CaMKIIδ (Homo sapiens, UniProt Q13557); assay: CaMKIIδ binding assay (TR-FRET with BODIPY-labeled probe ligand); details: CaMKIIδ binding assay, results of Table 2
T1 construct: Full-Length, Glutathione-S-Transferase(GST)-Tagged, Human CaMKIIδ was purchased from Carna Biosciences; purchased Carna Biosciences 02-111
How it was run: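 Compounds were tested as 4-fold, eight-point series for 1 hr at room temperature, and IC50 was obtained by logistic fitting against a 3 μM parent-compound control. Signal came from displacement of a 300 nM BODIPY ligand from 0.5 nM GST-CaMKIIδ, detected via Tb-anti-GST in calmodulin/Ca2+ (pH 7.6).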

T1 sequence (Q13557 1-478 isoform Q13557-12): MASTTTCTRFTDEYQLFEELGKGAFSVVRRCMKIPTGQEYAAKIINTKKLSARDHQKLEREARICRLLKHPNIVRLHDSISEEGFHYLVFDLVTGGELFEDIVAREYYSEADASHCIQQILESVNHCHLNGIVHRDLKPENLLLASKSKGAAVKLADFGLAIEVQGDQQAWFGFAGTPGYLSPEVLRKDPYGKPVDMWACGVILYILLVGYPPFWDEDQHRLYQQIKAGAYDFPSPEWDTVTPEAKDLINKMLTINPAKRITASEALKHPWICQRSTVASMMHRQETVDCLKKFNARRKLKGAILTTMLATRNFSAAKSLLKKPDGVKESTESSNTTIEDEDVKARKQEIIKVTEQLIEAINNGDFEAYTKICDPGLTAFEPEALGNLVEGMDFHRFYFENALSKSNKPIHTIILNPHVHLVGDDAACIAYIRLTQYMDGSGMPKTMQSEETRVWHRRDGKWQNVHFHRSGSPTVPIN

Row | SMILES | IC50 [nM]
1 | COc1cc2c(cc1Nc1ncc(-c3ccc(Cl)c(O[C@@H](C)Cn4cnnn4)c3)cn1)CCN(CC(F)(F)F)C2 [Example 490, (S)-N-(5-(3-((1-(1H-tetrazol-1-yl)propan-2-yl)oxy)-4-chlorophenyl)pyrimidin-2-yl)-7-methoxy-2-(2,2,2-trifluoroethyl)-1,2,3,4-tetrahydroisoquinolin-6-amine] | 10 to 100
2 | COc1cc2c(cc1Nc1ncc(-c3ccc(Cl)c(O[C@@H](C)Cn4cnnn4)c3)cn1)CN(C(=O)COC(C)=O)CC2 [Example 519, (S)-2-(7-((5-(3-((1-(1H-tetrazol-1-yl)propan-2-yl)oxy)-4-chlorophenyl)pyrimidin-2-yl)amino)-6-methoxy-3,4-dihydroisoquinolin-2(1H)-yl)-2-oxoethyl acetate] | 10 to 100
3 | COc1cc2c(cc1Nc1ncc(-c3ccc(Cl)c(O[C@@H](C)Cn4cnnn4)c3)cn1)N(C(=O)CN(C)C)CC2 [Example 497, (S)-1-(6-((5-(3-((1-(1H-tetrazol-1-yl)propan-2-yl)oxy)-4-chlorophenyl)pyrimidin-2-yl)amino)-5-methoxyindolin-1-yl)-2-(dimethylamino)ethan-1-one] | < 10
4 | COc1cc2c(cc1Nc1ncc(-c3ccc(Cl)c(O[C@@H](C)Cn4cnnn4)c3)cn1)CCN(C1COC1)C2 [Example 468, (S)-N-(5-(3-((1-(1H-tetrazol-1-yl)propan-2-yl)oxy)-4-chlorophenyl)pyrimidin-2-yl)-7-methoxy-2-(oxetan-3-yl)-1,2,3,4-tetrahydroisoquinolin-6-amine] | < 10
5 | COCC(=O)N1CCc2cc(Nc3ncc(-c4ccc(Cl)c(O[C@@H](C)Cn5cnnn5)c4)cn3)c(OC)cc2C1 [Example 469, (S)-1-(6-((5-(3-((1-(1H-tetrazol-1-yl)propan-2-yl)oxy)-4-chlorophenyl)pyrimidin-2-yl)amino)-7-methoxy-3,4-dihydroisoquinolin-2(1H)-yl)-2-methoxyethan-1-one] | 10 to 100
6 | C[C@@H](Cn1cnnn1)Oc1cc(-c2cnc(Nc3cn(CC4CCN(C(=O)OC(C)(C)C)C4)nc3C(F)(F)F)nc2)ccc1Cl (stereo partly drawn) [Example 571, tert-butyl 3-((4-((5-(3-(((S)-1-(1H-tetrazol-1-yl)propan-2-yl)oxy)-4-chlorophenyl)pyrimidin-2-yl)amino)-3-(trifluoromethyl)-1H-pyrazol-1-yl)methyl) pyrrolidine-1-carboxylate] | ≥ 100

same assay, conditions: CaMKIIδ binding assay; activity class per Table 2

Row | SMILES | IC50 [nM]
7 | C[C@@H](Cn1cnnn1)Oc1cc(-c2cnc(Nc3cn(CC4(O)CCN(C5CCC5)CC4)nc3OCC(F)(F)F)nc2)ccc1Cl [Example 908, (S)-4-((4-((5-(3-((1-(1H-tetrazol-1-yl)propan-2-yl)oxy)-4-chlorophenyl)pyrimidin-2-yl)amino)-3-(2,2,2-trifluoroethoxy)-1H-pyrazol-1-yl)methyl)-1-cyclobutylpiperidin-4-ol] | < 10
8 | C[C@@H](Cn1cnnn1)Oc1cc(-c2cnc(Nc3cn(C4CC5(C4)CN(C4CCOCC4)C5)nc3OCC(F)(F)F)nc2)ccc1C#N [Example 938, (S)-2-((1-(1H-tetrazol-1-yl)propan-2-yl)oxy)-4-(2-((1-(2-(tetrahydro-2H-pyran-4-yl)-2-azaspiro[3.3]heptan-6-yl)-3-(2,2,2-trifluoroethoxy)-1H-pyrazol-4-yl)amino)pyrimidin-5-yl)benzonitrile] | < 10
9 | C[C@@H](Cn1cnnn1)Oc1cc(-c2cnc(Nc3cn(C(C)(C)CO)nc3OCC(F)(F)F)nc2)ccc1Cl [Example 883, (S)-2-(4-((5-(3-((1-(1H-tetrazol-1-yl)propan-2-yl)oxy)-4-chlorophenyl)pyrimidin-2-yl)amino)-3-(2,2,2-trifluoroethoxy)-1H-pyrazol-1-yl)-2-methylpropan-1-ol] | < 10
10 | CC(C)c1nn(C2CC3(C2)CN(C2CCOCC2)C3)cc1Nc1ncc(-c2ccc(Cl)c(O[C@@H](C)Cn3cnnn3)c2)cn1 [Example 936, (S)-5-(3-((1-(1H-tetrazol-1-yl)propan-2-yl)oxy)-4-chlorophenyl)-N-(3-isopropyl-1-(2-(tetrahydro-2H-pyran-4-yl)-2-azaspiro[3.3]heptan-6-yl)-1H-pyrazol-4-yl)pyrimidin-2-amine] | < 10
11 | COc1ccc(Cn2cc(Nc3ncc(-c4ccc(Cl)c(O[C@@H](C)Cn5cnnn5)c4)cn3)c(OCC(F)(F)F)n2)cn1 [Example 926, (S)-5-(3-((1-(1H-tetrazol-1-yl)propan-2-yl)oxy)-4-chlorophenyl)-N-(1-((6-methoxypyridin-3-yl)methyl)-3-(2,2,2-trifluoroethoxy)-1H-pyrazol-4-yl)pyrimidin-2-amine] | < 10

same assay, conditions: Table 2; CaMKIIδ binding assay, activity given as class A/B/C

Row | SMILES | IC50 [nM]
12 | C[C@@H](Cn1cnnn1)Oc1cc(-c2cnc(Nc3ccnn3-c3ccccc3)nc2)ccc1Cl [Example 754, (S)-5-(3-((1-(1H-tetrazol-1-yl)propan-2-yl)oxy)-4-chlorophenyl)-N-(1-phenyl-1H-pyrazol-5-yl)pyrimidin-2-amine] | 10 to 100
13 | C[C@@H](Cn1cnnn1)Oc1cc(-c2cnc(Nc3cn(C4CCNCC4)nc3C(F)F)nc2)ccc1Cl [Example 771, (S)-5-(3-((1-(1H-tetrazol-1-yl)propan-2-yl)oxy)-4-chlorophenyl)-N-(3-(difluoromethyl)-1-(piperidin-4-yl)-1H-pyrazol-4-yl)pyrimidin-2-amine] | < 10
14 | CC(C)c1nn([C@H]2CC[C@@H](N3CCOCC3)CC2)cc1Nc1ncc(-c2ccc(Cl)c(O[C@@H](C)Cn3cnnn3)c2)cn1 [Example 842, 5-(3-(((S)-1-(1H-tetrazol-1-yl)propan-2-yl)oxy)-4-chlorophenyl)-N-(3-isopropyl-1-(cis-4-morpholinocyclohexyl)-1H-pyrazol-4-yl)pyrimidin-2-amine] | < 10
15 | C[C@@H](Cn1cnnn1)Oc1cc(-c2cnc(Nc3cn([C@H]4CC[C@H](N5CC(O)(C(F)(F)F)C5)CC4)nc3C(F)(F)F)nc2)ccc1Cl [Example 857, 1-(trans-4-(4-((5-(3-(((S)-1-(1H-tetrazol-1-yl)propan-2-yl)oxy)-4-chlorophenyl)pyrimidin-2-yl)amino)-3-(trifluoromethyl)-1H-pyrazol-1-yl)cyclohexyl)-3-(trifluoromethyl)azetidin-3-ol] | < 10
16 | Cc1cc(Nc2ncc(-c3ccc(Cl)c(O[C@@H](C)Cn4cnnn4)c3)cn2)n(CCC#N)n1 [Example 746, (S)-3-(5-((5-(3-((1-(1H-tetrazol-1-yl)propan-2-yl)oxy)-4-chlorophenyl)pyrimidin-2-yl)amino)-3-methyl-1H-pyrazol-1-yl)propanenitrile] | ≥ 100
17 | CCn1cc(Nc2ncc(-c3ccc(Cl)c(O[C@@H](C)Cn4cnnn4)c3)cn2)c(C(=O)N2CCOCC2)n1 [Example 866, (S)-(4-((5-(3-((1-(1H-tetrazol-1-yl)propan-2-yl)oxy)-4-chlorophenyl)pyrimidin-2-yl)amino)-1-ethyl-1H-pyrazol-3-yl)(morpholino)methanone] | 10 to 100
18 | C[C@@H](Cn1cnnn1)Oc1cc(-c2cnc(Nc3cn(C4CCN(C5CCOCC5)CC4)nc3OCC(F)F)nc2)ccc1Cl [Example 792, (S)-5-(3-((1-(1H-tetrazol-1-yl)propan-2-yl)oxy)-4-chlorophenyl)-N-(3-(2,2-difluoroethoxy)-1-(1-(tetrahydro-2H-pyran-4-yl)piperidin-4-yl)-1H-pyrazol-4-yl)pyrimidin-2-amine] | < 10

same assay, conditions: Table 2; activity class for CaMKIIδ

Row | SMILES | IC50 [nM]
19 | CC(C)n1ccc(Nc2ncc(-c3ccc(Cl)c(O[C@@H](C)Cn4cnnn4)c3)cn2)n1 [Example 723, (S)-5-(3-((1-(1H-tetrazol-1-yl)propan-2-yl)oxy)-4-chlorophenyl)-N-(1-isopropyl-1H-pyrazol-3-yl)pyrimidin-2-amine] | 10 to 100
20 | C[C@@H](Cn1cnnn1)Oc1cc(-c2cnc(Nc3cn(C4CCOC4)nc3C(F)(F)F)nc2)ccc1Cl (stereo partly drawn) [Example 644, 5-(3-(((S)-1-(1H-tetrazol-1-yl)propan-2-yl)oxy)-4-chlorophenyl)-N-(1-(tetrahydrofuran-3-yl)-3-(trifluoromethyl)-1H-pyrazol-4-yl)pyrimidin-2-amine] | 10 to 100
21 | C[C@@H](Cn1cnnn1)Oc1cc(-c2cnc(Nc3cn([C@H]4CC[C@H](C(=O)O)CC4)nc3C(F)(F)F)nc2)ccc1Cl [Example 626, trans-(S)-4-(4-((5-(3-((1-(1H-tetrazol-1-yl)propan-2-yl)oxy)-4-chlorophenyl)pyrimidin-2-yl)amino)-3-(trifluoromethyl)-1H-pyrazol-1-yl)cyclohexane-1-carboxylic acid] | 10 to 100
22 | COc1cc(N2C[C@@H]3C[C@H]2CN3C2CCOCC2)ccc1Nc1ncc(-c2ccc(Cl)c(O[C@@H](C)Cn3cnnn3)c2)cn1 [Example 653, 5-(3-(((S)-1-(1H-tetrazol-1-yl)propan-2-yl)oxy)-4-chlorophenyl)-N-(2-methoxy-4-((1S,4S)-5-(tetrahydro-2H-pyran-4-yl)-2,5-diazabicyclo[2.2.1]heptan-2-yl)phenyl)pyrimidin-2-amine] | 10 to 100
23 | C[C@@H](Cn1cnnn1)Oc1cc(-c2cnc(Nc3cn(CC4CCCO4)nc3C(F)(F)F)nc2)ccc1Cl (stereo partly drawn) [Example 710, 5-(3-(((S)-1-(1H-tetrazol-1-yl)propan-2-yl)oxy)-4-chlorophenyl)-N-(1-((tetrahydrofuran-2-yl)methyl)-3-(trifluoromethyl)-1H-pyrazol-4-yl)pyrimidin-2-amine] | 10 to 100
24 | COc1cc(N2CCNCC2)cnc1Nc1ncc(-c2ccc(Cl)c(O[C@@H](C)Cn3cnnn3)c2)cn1 [Example 621, (S)-5-(3-((1-(1H-tetrazol-1-yl)propan-2-yl)oxy)-4-chlorophenyl)-N-(3-methoxy-5-(piperazin-1-yl)pyridin-2-yl)pyrimidin-2-amine] | 10 to 100
25 | C[C@@H](Cn1cnnn1)Oc1cc(-c2cnc(Nc3cn(CC(=O)Nc4ccccc4)nc3C(F)(F)F)nc2)ccc1Cl [Example 617, (S)-2-(4-((5-(3-((1-(1H-tetrazol-1-yl)propan-2-yl)oxy)-4-chlorophenyl)pyrimidin-2-yl)amino)-3-(trifluoromethyl)-1H-pyrazol-1-yl)-N-phenylacetamide] | 10 to 100
